Assay results published in patent US6528534B2 (Millennium Pharmaceuticals, Inc., priority 1995, dated 2003).
Structures can show the parent of a compound that is named as a salt.

How the values were obtained:
GPIIb-IIIa = molecular target: T1, GPIIb-IIIa (Homo sapiens, UniProt P05106+P08514); test: ELISA IIb-IIIa assay (fibrinogen binding to immobilized GPIIb-IIIa); conditions: inhibition of biotinylated fibrinogen binding to plate-coated purified platelet GPIIb-IIIa receptor
T1 construct: Purified platelet GPIIb-IIIa receptor was prepared as described by Fitzgerald; from tissue; host or cells: platelets
Description: No. 1—The ELISA IIb-IIIa Assay:
In the following assay, GPIIb-IIIa is prepared in purified form, by a method such as described by Fitzgerald, L. A., et al., Anal Biochem (1985) 151:169-177, (the disclosure of which is incorporated herein by reference). GPIIb-IIIa is coated onto microtiter plates. The coated support is then contacted with fibrinogen and with the test material (e.g., compounds of Formula I) and incubated for a sufficient time to permit maximal binding of fibrinogen to the immobilized GPIIb-IIIa. Fibrinogen is typically provided at a concentration of about 5-50 nM and the test material can, if desired, be added at a series of dilution. Typical incubations are 2 to 4 hours at 25° C., the time and temperature being interdependent.
After incubation, the solution containing the fibrinogen and test material is removed and the level of binding of fibrinogen measured by quantitating bound fibrinogen to GPIIb-IIIa. Any suitable means of detection may be used, but it is convenient to employ labeled fibrinogen, for example using biotinylated labels. Such methods are well known in the art.
A. Description of Assays—Plate Assays
Purified platelet GPIIb-IIIa receptor was prepared as described by Fitzgerald, L. A., et al., Anal Biochem (1985) 151:169-177 (1985). Vitronectin receptor was prepared as described by Smith, J. W., J. Biol Chem (1988) 263:18726-18731. After purification, the receptors were stored in 0.1% Triton X-100 at 0.1-1.0 mg/ml.
The receptors were coated to the wells of 96-well flat-bottom ELISA plates (Linbro EIA-Plus microtiter plate, Flow Laboratories) after diluting 1:200 with a solution of 20 mM Tris-HCl, 150 mM NaCl, 1 mM CaCl2, pH 7.4, to reduce the Triton X-100 concentration to below its critical micellar concentration and adding an aliquot of 100 ul to each well. The wells were all allowed to incubate overnight at 4° C., and then aspirated to dryness. Additional sites were blocked by the addition of bovine serum albumin (BSA) at 35 mg/ml in the above buffer for two hours at 30° C. to prevent nonspecific binding. The wells were then washed once with binding buffer ([…] Tris-HCl, 100 mM NaCl 2 mM CaCl2, 1 mg/ml BSA).
The corresponding ligands (fibrinogen, von Willebrand Factor, or vitronectin) were conjugated to biotin using commercially available reagents and standard protocols. The labeled ligands were added to the receptor-coated wells at final concentration of 10 nM (100 ul/well) and incubated for 3 hours at 25° C. in the presence or absence of the test samples. After incubation, the wells are aspirated to dryness and bound ligand is quantitated.
The bound protein is detected by the addition of antibiotin antibody conjugated to alkaline phosphatase followed by addition of substrate (p-nitrophenyl phosphate), and determination of the optical density of each well at […]. Decreased color development is observed in wells incubated with test samples which inhibit binding of ligand to receptor.

[1] = test system: human platelet-rich plasma; test: Platelet aggregation assay, Aggregation-Human PRP/ADP; type: cell-based; conditions: inhibition of ADP-induced aggregation of human platelet-rich plasma
Description: No. 2—The Platelet Aggregation Assay
In addition to the ELISA IIb-IIIa assay previously described the Aggregation-Human PRP/ADP Assay is useful for evaluating therapeutic compounds.
Platelet-rich plasma was prepared from healthy human volunteers for use in determining inhibition of platelet aggregation by the compounds. Blood was collected via a 21-gauge butterfly cannula, using a two-syringe technique into 1/10 volume of 3.8% trisodium citrate.
Platelet-rich plasma was prepared at room temperature by centrifugation of the citrated whole blood at 100×g for twelve minutes. The platelet rich plasma contained approximately 200-400,000 platelets/μl.
Platelet-poor plasma was prepared by centrifugation of citrated whole blood at 12,000×g for 2 minutes.
Platelet aggregation was assayed in a 4-channel platelet aggregatiob profiler (PAP-4, Biodata, Hatboro, Pa.) according to the manufacturers directions. Inhibition of platelet aggregation was studied by adding varying amounts of adenosine diphosphate (ADP) to stirred human platelet-rich plasma. Specifically, the human platelet-rich plasma was incubated with the compound being tested for 1 minute at 37° C. prior to the addition of a variety of aggregating agents most often ADP 5 μM, but also 1 μg/ml collagen, 1 μM U46619 and 0.3 μM platelet activating factor.

T1 sequence (P08514 32-887 limits assumed): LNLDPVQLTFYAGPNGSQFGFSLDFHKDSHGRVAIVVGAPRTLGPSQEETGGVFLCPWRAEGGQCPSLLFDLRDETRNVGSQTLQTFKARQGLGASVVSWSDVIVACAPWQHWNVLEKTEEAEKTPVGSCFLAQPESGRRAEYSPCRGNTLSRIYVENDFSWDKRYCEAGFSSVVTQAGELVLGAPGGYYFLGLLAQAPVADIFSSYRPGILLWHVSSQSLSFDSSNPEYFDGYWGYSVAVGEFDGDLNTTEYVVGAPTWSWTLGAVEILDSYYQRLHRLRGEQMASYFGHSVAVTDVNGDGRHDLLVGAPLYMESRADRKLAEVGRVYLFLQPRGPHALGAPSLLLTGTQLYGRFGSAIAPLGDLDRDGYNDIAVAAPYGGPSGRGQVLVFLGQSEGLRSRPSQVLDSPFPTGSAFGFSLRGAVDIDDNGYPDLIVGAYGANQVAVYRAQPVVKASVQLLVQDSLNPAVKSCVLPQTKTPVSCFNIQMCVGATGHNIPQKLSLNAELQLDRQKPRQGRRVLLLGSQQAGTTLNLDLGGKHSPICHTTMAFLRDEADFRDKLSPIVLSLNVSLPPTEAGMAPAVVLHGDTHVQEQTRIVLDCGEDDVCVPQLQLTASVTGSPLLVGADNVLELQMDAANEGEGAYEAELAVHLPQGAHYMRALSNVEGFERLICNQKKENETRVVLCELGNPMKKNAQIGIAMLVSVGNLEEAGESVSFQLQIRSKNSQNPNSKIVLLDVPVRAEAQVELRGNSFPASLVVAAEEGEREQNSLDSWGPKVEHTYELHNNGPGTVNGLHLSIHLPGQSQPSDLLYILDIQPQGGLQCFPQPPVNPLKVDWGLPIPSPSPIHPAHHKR
T1 sequence (P08514 891-1039 limits assumed): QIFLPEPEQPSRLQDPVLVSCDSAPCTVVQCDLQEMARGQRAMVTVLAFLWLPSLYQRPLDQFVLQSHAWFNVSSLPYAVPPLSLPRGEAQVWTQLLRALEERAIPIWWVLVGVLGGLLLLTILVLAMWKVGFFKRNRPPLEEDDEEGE
T1 sequence (P05106 27-788): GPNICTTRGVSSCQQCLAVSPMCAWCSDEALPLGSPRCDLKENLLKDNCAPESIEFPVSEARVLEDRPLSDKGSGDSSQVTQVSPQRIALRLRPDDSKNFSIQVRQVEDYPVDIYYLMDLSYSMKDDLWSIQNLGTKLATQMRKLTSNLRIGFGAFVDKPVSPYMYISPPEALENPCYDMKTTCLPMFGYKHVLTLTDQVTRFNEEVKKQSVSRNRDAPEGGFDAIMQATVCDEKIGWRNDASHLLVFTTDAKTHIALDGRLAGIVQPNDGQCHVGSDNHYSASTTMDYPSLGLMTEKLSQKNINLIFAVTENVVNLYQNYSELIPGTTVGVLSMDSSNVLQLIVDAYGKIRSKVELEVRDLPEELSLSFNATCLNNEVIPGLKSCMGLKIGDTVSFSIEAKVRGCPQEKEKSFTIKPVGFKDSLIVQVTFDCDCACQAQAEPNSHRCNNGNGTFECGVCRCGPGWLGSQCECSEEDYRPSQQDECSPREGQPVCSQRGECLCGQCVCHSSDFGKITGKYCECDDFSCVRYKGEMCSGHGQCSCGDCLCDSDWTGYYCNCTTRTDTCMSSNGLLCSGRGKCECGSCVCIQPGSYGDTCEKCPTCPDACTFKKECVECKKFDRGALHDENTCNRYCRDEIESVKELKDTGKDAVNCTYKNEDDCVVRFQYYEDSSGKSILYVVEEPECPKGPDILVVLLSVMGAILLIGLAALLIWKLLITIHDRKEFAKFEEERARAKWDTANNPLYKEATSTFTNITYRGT

Compound | IC50 (GPIIb-IIIa) | IC50 [1] | melting point
CCOC(=O)CC1CCC2(CC1)CCN(C(=O)c1ccc(C(=N)N)cc1)CC2 [Example 1, Ethyl (3-(4-(Aminoiminomethyl)benzoyl)-3-aza-spiro[5.5]undec-9-yl)acetate Hydrochloride] | > 10000 nM | 100000 nM | 
N=C(N)c1ccc(C(=O)N2CCC3(CCC(CC(=O)O)CC3)CC2)cc1 [Example 2, (3-(4-(Aminoiminomethyl)benzoyl)-3-aza-spiro[5.5]undec-9-yl)acetic Acid Hydrochloride] | 8.2 nM | 410 nM | 
N=C(N)c1ccc(N2CC3(CCN(CCCC(=O)O)CC3)OC2=O)cc1 [Example 4, 4-(3-(4-(Aminoiminomethyl)phenyl)-2-oxo-1-oxa-3,8-diaza-5 spiro[4.5]dec-8-yl)butanoic Acid Bistrifluoroacetate] |  | 3000 nM | 
N=C(N)c1ccc(C2=NOC3(CCN(CC(=O)O)CC3)C2)cc1 [Example 6] |  | 4000 nM | 
CCOC(=O)CCCN1CCC2(CC1)CC(c1ccc(C(=N)N)cc1)=NO2 [Example 7, Hydrochloride] |  | 2800 nM | 
N=C(N)c1ccc(C2=NOC3(CCN(CCCC(=O)O)CC3)C2)cc1 [Example 8] |  | 320 nM | 
N=C(N)c1ccc(C2=NOC3(CCN(C(=O)CCC(=O)O)CC3)C2)cc1 [Example 10] |  | 1000 nM | 
N=C(N)c1ccc(C(=O)N2CCC3(CC2)CN(CCCC(=O)O)C(=O)CO3)cc1 [Example 12, Hydrochloride] |  | > 10000 nM | 
N=C(N)c1ccc(C(=O)N2CCC3(CC2)C(=O)N(CC(=O)O)C(=O)N3Cc2ccccc2)cc1 [Example 13, Trifluoroacetate] |  | > 100000 nM | 
CCOC(=O)CCN1CCC2(CC1)CC(c1ccc(C(=N)N)cc1)=NO2 [Example 14, Hydrochloride] |  | 640 nM | 
N=C(N)c1ccc(C2=NOC3(CCN(CCC(=O)O)CC3)C2)cc1 [Example 15, 4-(3-(4-(Aminoiminomethyl)phenyl)-1-oxa-2,8-diaza-spiro[4.5]dec-2-en-8-yl)propanoic Acid] |  | 110 nM | 
CCOC(=O)CCCC(=O)N1CCC2(CC1)CC(c1ccc(C(=N)N)cc1)=NO2 [Example 16, Ethyl 5-(3-(4-(Aminoiminomethyl)phenyl)-1-oxa-2,8-diaza-spiro[4.]dec-2-en-8-yl)-5-oxopentanoate Hydrochloride] |  | 200 nM | 
N=C(N)c1ccc(C2=NOC3(CCN(C(=O)CCCC(=O)O)CC3)C2)cc1 [Example 17] |  | 84 nM | 
N=C(N)c1ccc(C2=NOC3(CCN(CCCCC(=O)O)CC3)C2)cc1 [Example 19] |  | 450 nM | 
O=C(O)CN1CCC2(CCN(CCc3ccncc3)CC2)CC1 [Example 20, (9-(2-(Pyridin-4-yl)ethyl)-3,9-diazaspiro[5.5]undec-3-yl)acetic Acid Bistrifluoroacetate] |  | > 100000 nM | 
N=C(N)c1ccc(C(=O)N2CCC3(CC2)NC(=O)N(CCCC(=O)O)C3=O)cc1 [Example 21, Trifluoroacetate] |  | > 10000 nM | 
CCOC(=O)CC1CCC2(CC1)CCN(CCc1ccncc1)CC2 [Example 22, Ethyl (3-(2-(Pyridin-4-yl)ethyl)-3-azaspiro[5.5]undec-9-yl)acetate] |  | > 100000 nM | 

Compound | IC50 (GPIIb-IIIa) | IC50 [1] | melting point
O=C(O)CC1CCC2(CC1)CCN(CCc1ccncc1)CC2 [Example 23, (3-(2-(Pyridin-4-yl)ethyl)-3-azaspiro[5.5]undec-9-yl)acetic Acid] |  | > 100000 nM | 
CCOC(=O)CC1CCC2(CC1)CCN(CCC1CCNCC1)CC2 [Example 24, Ethyl (3-(2-(Piperidin-4-yl)ethyl)-3-azaspiro[5.5]undec-9-yl)acetate] |  | > 100000 nM | 
O=C(O)CC1CCC2(CC1)CCN(CCC1CCNCC1)CC2 [Example 25, (3-(2-(Piperidin-4-yl)ethyl)-3-azaspiro[5.5]undec-9-yl)acetic Acid] |  | > 10000 nM | 
O=C(O)CN1C(=O)CC2(CCN(CCc3ccncc3)CC2)CC1=O [Example 26, (9-(2-(Pyridin-4-yl)ethyl)-2,4-dioxo-3,9-diazaspiro[5.5]undec-3-yl)acetic Acid Trifluoroacetate] |  | > 100000 nM | 
O=C(O)CN1CCC2(CCN(CCC3CCNCC3)CC2)CC1 [Example 27, (9-(2-(Piperidin-4-yl)ethyl)-3,9-diazaspiro[5.5]undec-3-yl)acetic Acid Tristrifluoroacetate] |  | 100000 nM | 
N=C(N)c1ccc(C(=O)N2CCC3(CC2)CN(CC(=O)O)C(=O)O3)cc1 [Example 30, (8-(4-(Aminoiminomethyl)benzoyl)-2-oxo-1-oxa-3,8-diaza-spiro[4.5]dec-3-yl)acetic Acid] | 29000 nM | 80000 nM | 157 to 159 °C
N=C(N)c1ccc(CC(=O)N2CCC3(CC2)CN(CC(=O)O)C(=O)O3)cc1 [Example 31, (8-(2-(4-Aminoiminomethyl)acetyl)-2-oxo-1-oxa-3,8-diaza-spiro[4.5]dec-3-yl)acetic Acid.] | 74 nM | 1110 nM | 
N=C(N)c1ccc(CC(=O)N2CCC3(CC2)CCN(CC(=O)O)C(=O)O3)cc1 [Example 32] | 200 nM | 2130 nM | 
N=C(N)c1ccc(C(=O)N2CCC3(CCN(CC(=O)O)C(=O)O3)CC2)cc1 [Example 33, (9-(4-(Aminoiminomethyl)benzoyl)-2-oxo-1-oxa-3,9-diaza-spiro[5.5]undec-3-yl)acetic Acid] | 16500 nM | 66000 nM | 
N=C(N)c1ccc(COC2CCC3(CC2)CN(CC(=O)O)C(=O)O3)cc1 (stereo not drawn) [Example 34, (8-(4-(Aminoiminomethyl)benzyloxy)-2-oxo-1-oxa-3-aza-spiro[4.5]dec-3-yl)acetic Acid] | 350 nM | 1290 nM | 
N=C(N)c1ccc(CC(=O)NC2CCC3(CC2)CN(CC(=O)O)C(=O)O3)cc1 (stereo not drawn) [Example 35, (8-(2-(4-(Aminoiminomethyl)phenyl)acetamido)-2-oxo-1-oxa-3-aza-spiro[4.5]dec-3-yl)acetic Acid] | 190 nM | 770 nM | 193 to 196 °C
N=C(N)c1ccc(C(=O)NC2CCC3(CC2)CN(CC(=O)O)C(=O)O3)cc1 (stereo not drawn) [Example 36, (8-(4-(Aminoiminomethyl)benzamido)-2-oxo-1-oxa-3-aza-spiro[4.5]dec-3-yl)acetic Acid] | 170 nM | 510 nM | 280 to 284 °C
N=C(N)NCCCC(=O)N1CCC2(CC1)CN(CC(=O)O)C(=O)O2 [Example 37] | 19000 nM | 52000 nM | 
N=C(N)NCCCCC(=O)N1CCC2(CC1)CN(CC(=O)O)C(=O)O2 [Example 38] | 1850 nM | 7000 nM | 
N=C(N)NCCCCCC(=O)N1CCC2(CC1)CN(CC(=O)O)C(=O)O2 [Example 39] | 2700 nM | 12000 nM | 
N=C(N)c1ccc(C(=O)N2CCC3(CCN(C(=O)CCC(=O)O)CC3)CC2)cc1 [Example 41, 4-((3-(4-Aminoiminomethyl)benzoyl)-3,9-diaza-spiro[5.5]undec-9-25 yl)-4-oxobutanoic Acid] | 15000 nM | 14000 nM | 
N=C(N)c1ccc(C(=O)N2CCC3(CCN(C(=O)CCCC(=O)O)CC3)CC2)cc1 [Example 42, 5-((3-(4-Aminoiminomethyl)benzoyl)-3,9-diaza-spiro[5.5]undec-9-yl)-5-oxopentanoic Acid] | 3500 nM | 10000 nM | 
